Test results taken from ChEMBL document CHEMBL4145602, “Cyclic Peptidic Mimetics of Apollo Peptides Targeting Telomeric Repeat Binding Factor 2 (TRF2) and Apollo Interaction” (ACS Med Chem Lett, 2018).
Square brackets hold non-standard residues; d marks the D form. Peptide text beside a SMILES is read from it. Phe(4-NH2) = Nc1ccc(C[C@H](N)C(=O)O)cc1; Gly(cPent) = N[C@H](C(=O)O)C1CCCC1; tBuAla = CC(C)(C)C[C@H](N)C(=O)O; Cha = N[C@@H](CC1CCCCC1)C(=O)O; Chg = N[C@H](C(=O)O)C1CCCCC1; Nva = CCC[C@H](N)C(=O)O

Biological target: T1, Telomeric repeat-binding factor 2 (Homo sapiens, UniProt Q15554)
T1 sequence (Q15554 whole entry): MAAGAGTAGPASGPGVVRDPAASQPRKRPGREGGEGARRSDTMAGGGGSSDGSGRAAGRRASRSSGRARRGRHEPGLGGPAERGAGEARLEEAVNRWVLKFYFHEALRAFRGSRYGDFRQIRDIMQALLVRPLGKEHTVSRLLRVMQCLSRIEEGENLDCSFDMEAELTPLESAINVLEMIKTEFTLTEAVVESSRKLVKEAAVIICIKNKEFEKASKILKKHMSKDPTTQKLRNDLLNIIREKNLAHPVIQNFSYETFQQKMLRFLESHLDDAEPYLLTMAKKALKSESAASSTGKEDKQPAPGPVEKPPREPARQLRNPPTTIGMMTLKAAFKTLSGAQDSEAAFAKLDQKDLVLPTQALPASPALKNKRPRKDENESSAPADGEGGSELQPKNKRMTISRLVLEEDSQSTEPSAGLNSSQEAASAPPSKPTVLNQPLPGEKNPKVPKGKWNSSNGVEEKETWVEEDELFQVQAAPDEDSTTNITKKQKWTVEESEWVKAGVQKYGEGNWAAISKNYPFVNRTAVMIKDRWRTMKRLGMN
Test: Displacement of 5-((2R,6S,9S,12S,15S,18S,21S,24S)-3-((S)-2-((S)-1-amino-3-methyl-1-oxobutan-2-ylcarbamoyl)pyrrolidine-1-carbonyl)-15-(4-aminobutyl)-2-hydroxy-12-(4-hydroxybenzyl)-6,9,18,24-tetraisobutyl-21-methyl-5,8,11,14,17,20,23,26,29-nonaoxo-4,7,10,13,16,19,22,25,28-nonaazatetratriacontan-34-ylcarbamoyl)-2-(6-hydroxy-3-oxo-3H-xanthen-9-yl)benzoic acid from TRF2 TRFH domain (unknown origin) after 30 mins by fluorescence polarization assay

Ki [µM]	Compound
43.2	CC(C)C[C@@H]1NC(=O)[C@@H](NC(=O)[C@@H](N)Cc2ccccc2)CCCCCCCC[C@@H](C(=O)N(C)C)NC(=O)[C@@H]2CCCN2C(=O)[C@H](C)NC1=O
0.09	CC(=O)N[C@@H](CC(C)C)C(=O)N[C@@H](C)C(=O)N[C@@H](CC(C)C)C(=O)N[C@@H](CCCCN)C(=O)N[C@@H](Cc1ccc(O)cc1)C(=O)N[C@H]1CCCCCCC[C@@H](C(=O)N(C)C)NC(=O)[C@@H]2CCCN2C(=O)[C@H](C)NC(=O)[C@H](CC(C)C)NC1=O
14.3	CC(C)C[C@@H]1NC(=O)[C@@H](NC(=O)[C@H](Cc2ccccc2)NC(=O)C[C@@H](N)Cc2ccccc2)CCCCCCC[C@@H](C(=O)N(C)C)NC(=O)[C@@H]2CCCN2C(=O)[C@H](C)NC1=O
115	CC(C)C[C@@H]1NC(=O)[C@@H](N)CCCCCCC[C@@H](C(=O)N(C)C)NC(=O)[C@@H]2CCCN2C(=O)[C@H](C)NC1=O
130	CC(C)C[C@@H]1NC(=O)[C@@H](NC(=O)[C@@H](N)Cc2ccccc2)CCCCCC[C@@H](C(=O)N(C)C)NC(=O)[C@@H]2CCCN2C(=O)[C@H](C)NC1=O
18.4	CC(C)C[C@@H]1NC(=O)[C@@H](NC(=O)[C@H](Cc2ccc(O)cc2)NC(=O)[C@@H](N)CCCCN)CCCCCCC[C@@H](C(=O)N(C)C)NC(=O)[C@@H]2CCCN2C(=O)[C@H](C)NC1=O
41.4	CC(C)C[C@@H]1NC(=O)[C@@H](NC(=O)[C@@H](N)Cc2ccccc2)CCCCCCC[C@@H](C(=O)N(C)C)NC(=O)[C@@H]2CCCN2C(=O)[C@H](C)NC1=O
11.2	CC(C)C[C@@H]1NC(=O)[C@@H](NC(=O)[C@H](Cc2ccccc2)NC(=O)CCc2ccccc2)CCCCCCC[C@@H](C(=O)N(C)C)NC(=O)[C@@H]2CCCN2C(=O)[C@H](C)NC1=O
1.4	CC(=O)N[C@@H](CC(C)C)C(=O)N[C@@H](C)C(=O)N[C@@H](CC(C)C)C(=O)N[C@@H](CCCCN)C(=O)N[C@@H](Cc1ccc(O)cc1)C(=O)N[C@@H](CC(C)C)C(=O)N[C@@H](CC1CCCCC1)C(=O)N[C@H](C(=O)N1CCC[C@H]1C(=O)N[C@H](C(N)=O)C(C)C)[C@@H](C)O (Ac-LALKYL[Cha]TPV-NH2)

Further lines, the compound ahead of its results:

Compound	Ki [µM]
CC(C)C[C@@H]1NC(=O)[C@@H](NC(=O)[C@@H](N)Cc2ccc(O)cc2)CCCCCCC[C@@H](C(=O)N(C)C)NC(=O)[C@@H]2CCCN2C(=O)[C@H](C)NC1=O	58.2
CC(=O)N[C@@H](CC(C)C)C(=O)N[C@@H](C)C(=O)N[C@@H](CC(C)C)C(=O)N[C@@H](C)C(=O)N[C@@H](Cc1ccc(O)cc1)C(=O)N[C@@H](CC(C)C)C(=O)N[C@@H](CC(C)C)C(=O)N[C@H](C(=O)N1CCC[C@H]1C(=O)N[C@H](C(N)=O)C(C)C)[C@@H](C)O (Ac-LALAYLLTPV-NH2)	3.2
CC(=O)N[C@@H](CC(C)C)C(=O)N[C@@H](C)C(=O)N[C@@H](CC(C)C)C(=O)N[C@@H](CCCCN)C(=O)N[C@@H](Cc1ccccc1)C(=O)N[C@@H](CC(C)C)C(=O)N[C@@H](CC(C)C)C(=O)N[C@H](C(=O)N1CCC[C@H]1C(=O)N[C@H](C(N)=O)C(C)C)[C@@H](C)O (Ac-LALKFLLTPV-NH2)	3.4
CC(=O)N[C@@H](CC(C)C)C(=O)N[C@@H](C)C(=O)N[C@@H](CC(C)C)C(=O)N[C@@H](CCCCN)C(=O)N[C@@H](Cc1ccc(O)cc1)C(=O)N[C@@H](CC(C)C)C(=O)O (Ac-LALKYL-OH)	461
CC(=O)N[C@@H](CC(C)C)C(=O)N[C@@H](C)C(=O)N[C@@H](CC(C)C)C(=O)N[C@@H](CCCCN)C(=O)N[C@@H](Cc1ccc(O)cc1)C(=O)N[C@@H](CC(C)C)C(=O)N[C@@H](C)C(=O)N[C@H](C(=O)N1CCC[C@H]1C(=O)N[C@H](C(N)=O)C(C)C)[C@@H](C)O (Ac-LALKYLATPV-NH2)	> 100
CC(=O)N[C@@H](CC(C)C)C(=O)N[C@@H](C)C(=O)N[C@@H](CC(C)C)C(=O)N[C@@H](CCCCN)C(=O)N[C@@H](Cc1ccc(O)cc1)C(=O)N[C@@H](CC(C)C)C(=O)N[C@@H](Cc1ccccc1)C(=O)N[C@H](C(=O)N1CCC[C@H]1C(=O)N[C@H](C(N)=O)C(C)C)[C@@H](C)O (Ac-LALKYLFTPV-NH2)	8.5
CC[C@H](C)[C@H](NC(=O)[C@H](CC(C)C)NC(=O)[C@H](Cc1ccc(O)cc1)NC(=O)[C@H](CCCCN)NC(=O)[C@H](CC(C)C)NC(=O)[C@H](C)NC(=O)[C@H](CC(C)C)NC(C)=O)C(=O)N[C@H](C(=O)N1CCC[C@H]1C(=O)N[C@H](C(N)=O)C(C)C)[C@@H](C)O (Ac-LALKYLITPV-NH2)	11.3
CC(=O)N[C@@H](CC(C)C)C(=O)N[C@@H](C)C(=O)N[C@@H](CC(C)C)C(=O)N[C@@H](CCCCN)C(=O)N[C@@H](Cc1ccc(O)cc1)C(=O)N[C@@H](CC(C)C)C(=O)N[C@@H](CC(C)C)C(=O)O (Ac-LALKYLL-OH)	98
CC(=O)N[C@@H](CC(C)C)C(=O)N[C@@H](C)C(=O)N[C@@H](CC(C)C)C(=O)N[C@@H](CCCCN)C(=O)N[C@@H](Cc1ccc(O)cc1)C(=O)N[C@@H](CC(C)C)C(=O)N[C@@H](CC(C)C)C(=O)N[C@@H](C)C(=O)N1CCC[C@H]1C(=O)N[C@H](C(N)=O)C(C)C (Ac-LALKYLLAPV-NH2)	0.24
CC(=O)N[C@@H](CC(C)C)C(=O)N[C@@H](C)C(=O)N[C@@H](CC(C)C)C(=O)N[C@@H](CCCCN)C(=O)N[C@@H](Cc1ccc(O)cc1)C(=O)N[C@@H](CC(C)C)C(=O)N[C@@H](CC(C)C)C(=O)N[C@H](C(=O)O)[C@@H](C)O (Ac-LALKYLLT-OH)	26.3
CC(=O)N[C@@H](CC(C)C)C(=O)N[C@@H](C)C(=O)N[C@@H](CC(C)C)C(=O)N[C@@H](CCCCN)C(=O)N[C@@H](Cc1ccc(O)cc1)C(=O)N[C@@H](CC(C)C)C(=O)N[C@@H](CC(C)C)C(=O)N[C@H](C(=O)N1CCC[C@H]1C(=O)O)[C@@H](C)O (Ac-LALKYLLTP-OH)	1.89
CC(=O)N[C@@H](CC(C)C)C(=O)N[C@@H](C)C(=O)N[C@@H](CC(C)C)C(=O)N[C@@H](CCCCN)C(=O)N[C@@H](Cc1ccc(O)cc1)C(=O)N[C@@H](CC(C)C)C(=O)N[C@@H](CC(C)C)C(=O)N[C@H](C(=O)N1CCC[C@H]1C(=O)N[C@H](C(=O)O)C(C)C)[C@@H](C)O (Ac-LALKYLLTPV-OH)	0.34
CC(=O)N[C@@H](CC(C)C)C(=O)N[C@@H](C)C(=O)N[C@@H](CC(C)C)C(=O)N[C@@H](CCCCN)C(=O)N[C@@H](Cc1ccc(O)cc1)C(=O)N[C@@H](CC(C)C)C(=O)N[C@H](C(=O)N[C@H](C(=O)N1CCC[C@H]1C(=O)N[C@H](C(N)=O)C(C)C)[C@@H](C)O)C(C)C (Ac-LALKYLVTPV-NH2)	61.2
CC(=O)N[C@@H](CC(C)C)C(=O)N[C@@H](C)C(=O)N[C@@H](CC(C)C)C(=O)N[C@@H](CCCCN)C(=O)N[C@@H](Cc1ccc(O)cc1)C(=O)N[C@@H](CC(C)C)C(=O)N[C@H](C(=O)N[C@H](C(=O)N1CCC[C@H]1C(=O)N[C@H](C(N)=O)C(C)C)[C@@H](C)O)C1CCCCC1 (Ac-LALKYL[Chg]TPV-NH2)	0.21
CC(=O)N[C@@H](CC(C)C)C(=O)N[C@@H](C)C(=O)N[C@@H](CC(C)C)C(=O)N[C@@H](CCCCN)C(=O)N[C@@H](Cc1ccc(O)cc1)C(=O)N[C@@H](CC(C)C)C(=O)N[C@H](C(=O)N[C@H](C(=O)N1CCC[C@H]1C(=O)N[C@H](C(N)=O)C(C)C)[C@@H](C)O)C1CCCC1 (Ac-LALKYL[Gly(cPent)]TPV-NH2)	0.51
CCC[C@H](NC(=O)[C@H](CC(C)C)NC(=O)[C@H](Cc1ccc(O)cc1)NC(=O)[C@H](CCCCN)NC(=O)[C@H](CC(C)C)NC(=O)[C@H](C)NC(=O)[C@H](CC(C)C)NC(C)=O)C(=O)N[C@H](C(=O)N1CCC[C@H]1C(=O)N[C@H](C(N)=O)C(C)C)[C@@H](C)O (Ac-LALKYL[Nva]TPV-NH2)	4.7
CC(=O)N[C@@H](CC(C)C)C(=O)N[C@@H](C)C(=O)N[C@@H](CC(C)C)C(=O)N[C@@H](CCCCN)C(=O)N[C@@H](Cc1ccc(O)cc1)C(=O)N[C@@H](CC(C)C)C(=O)N[C@@H](CC(C)(C)C)C(=O)N[C@H](C(=O)N1CCC[C@H]1C(=O)N[C@H](C(N)=O)C(C)C)[C@@H](C)O (Ac-LALKYL[tBuAla]TPV-NH2)	6.1
CC(=O)N[C@@H](CC(C)C)C(=O)N[C@@H](C)C(=O)N[C@@H](CC(C)C)C(=O)N[C@@H](CCCCN)C(=O)N[C@@H](Cc1ccc(N)cc1)C(=O)N[C@@H](CC(C)C)C(=O)N[C@@H](CC(C)C)C(=O)N[C@H](C(=O)N1CCC[C@H]1C(=O)N[C@H](C(N)=O)C(C)C)[C@@H](C)O (Ac-LALK[Phe(4-NH2)]LLTPV-NH2)	0.72
CC(C)C[C@H](NC(=O)[C@H](C)N)C(=O)N[C@@H](CCCCN)C(=O)N[C@@H](Cc1ccc(O)cc1)C(=O)N[C@@H](CC(C)C)C(=O)N[C@@H](CC(C)C)C(=O)N[C@H](C(=O)N1CCC[C@H]1C(=O)N[C@H](C(=O)O)C(C)C)[C@@H](C)O (H-ALKYLLTPV-OH)	22.8
CC(C)C[C@H](NC(=O)CN)C(=O)N[C@@H](C)C(=O)N[C@@H](CC(C)C)C(=O)N[C@@H](CCCCN)C(=O)N[C@@H](Cc1ccc(O)cc1)C(=O)N[C@@H](CC(C)C)C(=O)N[C@@H](CC(C)C)C(=O)N[C@H](C(=O)N1CCC[C@H]1C(=O)N[C@H](C(=O)O)C(C)C)[C@@H](C)O (H-GLALKYLLTPV-OH)	0.38
CC(C)C[C@H](NC(=O)[C@H](Cc1ccc(O)cc1)NC(=O)[C@@H](N)CCCCN)C(=O)N[C@@H](CC(C)C)C(=O)N[C@H](C(=O)N1CCC[C@H]1C(=O)N[C@H](C(=O)O)C(C)C)[C@@H](C)O (H-KYLLTPV-OH)	123
